What was measured:
H9 = assay: Cytotoxicity against mock-infected human H9 cells after 4 days; type: cell-based; conditions: h9, 96 h
[1] = Therapeutic index, ratio of IC50 for mock-infected human H9 cells to EC50 for HIV1 3B; type: cell-based; conditions: for Activity: h9; for selectivity ratio: read-out: TI

SMILES | Activity (H9) | Activity [1] | selectivity ratio [1]
C/C=C(/C)C(=O)O[C@H]1c2cc3c(c(OC)c2-c2c(cc4c(c2OC)OCO4)C[C@H](C)[C@@H]1C)OCO3 [ANGELOYLGOMISIN R] | Not Active | Active | –
COc1c2c(cc3c1-c1c(cc4c(c1OC)OCO4)[C@H](OC(=O)c1ccccc1)[C@@H](C)[C@@H](C)C3)OCO2 [INTERIOTHERIN A] | – | – | 13.2
C/C=C(/C)C(=O)O[C@H]1c2cc3c(c(OC)c2-c2c(cc4c(c2OC)OCO4)C[C@H](C)[C@]1(C)O)OCO3 [INTERIOTHERIN B] | Not Active | Active | –
COc1c2c(cc3c1-c1c(cc4c(c1OC)OCO4)[C@H](OC(=O)c1ccccc1)[C@@](C)(O)[C@@H](C)C3)OCO2 [SCHISANTHERIN D] | – | – | 50.6
Cc1cn([C@H]2C[C@H](N=[N+]=[N-])[C@@H](CO)O2)c(=O)[nH]c1=O [ZIDOVUDINE] | – | – | 250000

— ChEMBL document CHEMBL1158229, “Two new lignans, interiotherins A and B, as anti-HIV principles from Kadsura interior” (J Nat Prod, 1996)
